These results are taken from patent US10174358B2 (priority 2013, dated 2019).

The experiment concerns the target T1, EF-Tu:GTP:aa-tRNA ternary complex (Escherichia coli, UniProt P0CE48, C138A/C256V/E349C).
T1 construct: made in house; host or cells: E. coli BL-21
It is filed as binding. Conditions: for effect of the inhibitor on fluorescence intensity in the assay: addition of inhibitor to the formed ternary complex, Ex 532/Em 665 nm.

T1 sequence (P0CE48 2-394 C138A/C256V/E349C, one chain of several): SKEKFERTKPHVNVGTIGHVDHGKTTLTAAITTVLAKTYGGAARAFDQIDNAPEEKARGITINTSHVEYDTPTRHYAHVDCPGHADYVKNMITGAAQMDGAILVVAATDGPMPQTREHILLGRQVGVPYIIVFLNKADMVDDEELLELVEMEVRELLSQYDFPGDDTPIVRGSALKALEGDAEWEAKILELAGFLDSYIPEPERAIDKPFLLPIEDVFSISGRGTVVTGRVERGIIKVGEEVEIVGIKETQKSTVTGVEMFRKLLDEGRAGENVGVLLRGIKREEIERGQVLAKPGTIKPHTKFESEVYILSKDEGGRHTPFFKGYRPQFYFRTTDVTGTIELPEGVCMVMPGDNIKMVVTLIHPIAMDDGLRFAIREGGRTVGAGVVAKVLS
Method: FRET Assay (Assembly Fluorescence)
FRET measurements were done using Photon Technology International fluorescence spectrofluorometer with FeliX software. Cy3 fluorescence was monitored in the spectrum or time base mode at excitation/emission 549/565 nm. […] The slot parameters and photomultiplier voltage were adjusted to get a response in the range of 0.5-1.2×10^6 RFU for the Cy3 fluorescence scan at the 20-30 nM Phe-tRNA^Phe(Cy3) concentration and 4-5×10^4 RFU for Cy5 fluorescence scan (excitation/emission 633/665 nm) at the 300-400 nM Cy5-EF-Tu concentration. The titration of Phe-tRNA^Phe(Cy3) by Cy5-EF-Tu was typically done in presence of 100 μM GTP in a 150 μl volume of the same incubation buffer as used in the above mentioned gel retardation assay. During the assay (up to 120 minutes), the reaction mix also was supplemented with 1 mM ATP and 5 μg/ml of Phe-tRNA synthetase to prevent deacylation of Phe-tRNA^Phe(Cy3). The concentration of Phe-RNA^Phe(Cy3) was up to 30 nM and GTP:Cy5-EF-Tu was varied in range of 30-240 nM.
All FRET measurements were done using PTI (Photon Technology International) fluorescence spectrofluorometer with FeliX 1.42B software. The FRET was monitored in the time-base mode using the 532 nm excitation and 665 nm emission (suitable for the Cy5 dye). The slot parameters and photomultiplier voltage were adjusted to get a response in the range of 2.6-3×10^3 RFU for the Cy5 fluorescence at a 200 nM concentration of Cy5-labeled EF-Tu. Time-base titration experiments were typically carried out in a 150 μl black cuvette at 25 or 37° C. The Cy5 fluorescence was monitored at five second intervals for up to 2 hours. Cy5-labeled EF-Tu carrying the E348C mutation was added from a concentrated stock solution to reach the final concentration of 180-200 nM.
The 5× incubation buffer was 350 mM HEPES-KOH (pH 7.6), 260 mM NH4OAc, 40 mM Mg(OAc)2, 150 mM KCl, 7 mM DTT and 12.6% glycerol. The 1× incubation buffer in final reaction volume was also supplemented with 1 mM ATP and 5 μg/ml of Phe-tRNA synthetase, 7.2 mM phosphoenolpyruvate and 2.5 U/ml pyruvate kinase; a 40 μM stock of Cy3-labeled aminoacylated tRNA^Phe, a 30 μM stock of Cy3-labeled uncharged tRNA^Phe, a 110 μM stock of Cy5-labeled EF-Tu [C137A, C255V, E348C], a 5 mg/ml stock of Phe-tRNA synthetase, and a 10 mM stock in DMSO (7.97 mg/ml) of Kirromycin (FW 796.9).
The Cy5-labeled EF-Tu [180 nM] (GTP form) in a 300 μl volume was placed in 1× incubation buffer. The volume was split into two parts and measured in two sets at 25° C.
The Cy5-labeled EF-Tu [180 nM] (GTP form) in a 300 μl volume was placed in 1× incubation buffer. The reaction was split into two parts and supplemented with 100 μM GTP (Set I) or GDP (Set II). The fluorescence intensity was measured at 25° C.
The Cy5-labeled EF-Tu [320 nM] (GTP form) was in a 300 μl volume of the 1× incubation buffer. The reaction was supplemented with 100 μM GTP and split on two parts.

Turning to `Nc1nc2c(ncn2[C@@H]2O[C@H](COP(=O)(O)OP(=O)(O)O)[C@@H](O)[C@H]2O)c(=O)[nH]1` [GDP], the “effect of the inhibitor on fluorescence intensity in the assay” value is on record as “significantly reduces the fluorescence intensity”. For the same molecule, the “decrease in the Cy5 fluorescence of the formed complex” value (10-fold molar excess of GDP added to formed complex, Cy5-EF-Tu 180 nM, 100 μM GTP, Phe-tRNA^Phe(Cy3) 160 nM, 25° C., FIG. 12) is given as 60%. Also, the “FRET response when Cy5-labeled EF-Tu was incubated with GDP” value (Cy5-EF-Tu 180 nM incubated with 100 μM GDP instead of GTP (plot 2 / set II), FIG. 12) is listed as “significantly lower”.

Regarding kirromycin, the “effect of the inhibitor on fluorescence intensity in the assay” value is “significantly reduces the fluorescence intensity”. Besides, the “decrease of FRET response after addition of kirromycin” value (kirromycin 80 μM, Cy5-labeled EF-Tu 180 nM (GTP form), Cy3-PhetRNA^Phe 160 nM, 25° C., FIG. 13) is given as “approximately 30%”.
